Data reported in ChEMBL document CHEMBL1201862, “PubChem BioAssay data set” (2004).
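In this assay, cells in 96-well plates receive the compound at five concentrations for 48 hours. Endpoints are linearly interpolated between the surrounding concentrations. Here, GI50 denotes the concentration required for 50% inhibition of growth.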 Activity calls are given as the source filed them. Rule as the data show it: active = GI50 up to about 1.1 µM and inactive = higher.

Columns and labels:
Assay in all cases: growth of human tumour cells (NCI), 48 h
M14 = test system: M14
SF-539 = test system: SF-539
LOX IMVI = test system: LOX IMVI
OVCAR-3 = test system: OVCAR-3
A549 = test system: A549
SNB-75 = test system: SNB-75
SK-OV-3 = test system: SK-OV-3
NCI-H226 = test system: NCI-H226
CCRF-CEM = test system: CCRF-CEM
HCT-116 = test system: HCT-116
TK-10 = test system: TK-10
SF-295 = test system: SF-295
CAKI-1 = test system: CAKI-1
SK-MEL-28 = test system: SK-MEL-28
NCI/ADR-RES = test system: NCI/ADR-RES
MCF7 = test system: MCF7

| SMILES | GI50 (M14) | GI50 (SF-539) | GI50 (LOX IMVI) | GI50 (OVCAR-3) | GI50 (A549) | GI50 (SNB-75) | GI50 (SK-OV-3) | GI50 (NCI-H226) | GI50 (CCRF-CEM) | GI50 (HCT-116) | GI50 (TK-10) | GI50 (SF-295) | GI50 (CAKI-1) | GI50 (SK-MEL-28) | GI50 (NCI/ADR-RES) | GI50 (MCF7) |
| --- | --- | --- | --- | --- | --- | --- | --- | --- | --- | --- | --- | --- | --- | --- | --- | --- |
| O=C1CCC(=O)C(C(=O)CCC(=O)Nc2cccc(Cl)c2)C1 (stereo not drawn) | > 100 µM (inactive) | > 100 µM (inactive) | > 100 µM (inactive) | > 100 µM (inactive) | > 100 µM (inactive) | > 100 µM (inactive) | > 100 µM (inactive) | > 100 µM (inactive) | > 100 µM (inactive) | > 100 µM (inactive) | > 100 µM (inactive) | > 100 µM (inactive) | > 100 µM (inactive) | – | – | – |
| CCOC(=O)CC1COc2ccc3c(c21)OCO3 (stereo not drawn) | > 100 µM (inactive) | > 100 µM (inactive) | > 100 µM (inactive) | > 100 µM (inactive) | > 100 µM (inactive) | > 100 µM (inactive) | > 100 µM (inactive) | > 100 µM (inactive) | > 100 µM (inactive) | > 100 µM (inactive) | > 100 µM (inactive) | > 100 µM (inactive) | – | > 100 µM (inactive) | – | – |
| COc1ccc(C2NC3=C(CCCC3)N2)cc1 | 37.4 µM (inactive) | 87.5 µM (inactive) | 56.4 µM (inactive) | 71 µM (inactive) | > 100 µM (inactive) | 58.7 µM (inactive) | 42.6 µM (inactive) | > 100 µM (inactive) | > 100 µM (inactive) | 64.9 µM (inactive) | > 100 µM (inactive) | 78 µM (inactive) | – | > 100 µM (inactive) | – | – |
| CCOC(=O)c1oc2c(OC)ccc3c2c1CCC3 | > 100 µM (inactive) | > 100 µM (inactive) | > 100 µM (inactive) | > 100 µM (inactive) | > 100 µM (inactive) | 77.6 µM (inactive) | > 100 µM (inactive) | – | 73.3 µM (inactive) | – | > 100 µM (inactive) | > 100 µM (inactive) | – | > 100 µM (inactive) | – | – |
| CCCOP1(=O)C=C(O)C(Cl)=C(C)C1 (stereo not drawn) | > 100 µM (inactive) | > 100 µM (inactive) | > 100 µM (inactive) | > 100 µM (inactive) | > 100 µM (inactive) | > 100 µM (inactive) | > 100 µM (inactive) | > 100 µM (inactive) | > 100 µM (inactive) | > 100 µM (inactive) | > 100 µM (inactive) | > 100 µM (inactive) | – | > 100 µM (inactive) | – | – |
| COC(=O)/C(=N/Nc1cccc(Cl)c1)C(C(=O)C(=O)Nc1cccc(Cl)c1C)c1nc2ccccc2nc1C (stereo not drawn) | 53.5 µM (inactive) | 59.2 µM (inactive) | – | > 100 µM (inactive) | 63.7 µM (inactive) | – | > 100 µM (inactive) | – | 62.5 µM (inactive) | 62.5 µM (inactive) | > 100 µM (inactive) | > 100 µM (inactive) | 52.6 µM (inactive) | 92.3 µM (inactive) | – | – |
| O/N=C\C(=N/O)Nc1ccc(Cc2ccc(NC(/C=N\O)=N/O)cc2)cc1 | 27.5 µM (inactive) | 45.2 µM (inactive) | 40.6 µM (inactive) | 42.3 µM (inactive) | 87.5 µM (inactive) | – | 33.2 µM (inactive) | 18.1 µM (inactive) | 45.4 µM (inactive) | 79.4 µM (inactive) | 45.2 µM (inactive) | 21.7 µM (inactive) | 18.8 µM (inactive) | > 100 µM (inactive) | – | – |
| O=C1C(=O)N(c2ccc(Cl)cc2)C(=O)/C(=N/c2cccc3c(=O)[nH][nH]c(=O)c23)C1c1nc2ccccc2o1 (stereo not drawn) | > 100 µM (inactive) | > 100 µM (inactive) | > 100 µM (inactive) | > 100 µM (inactive) | > 100 µM (inactive) | > 100 µM (inactive) | > 100 µM (inactive) | > 100 µM (inactive) | > 100 µM (inactive) | > 100 µM (inactive) | > 100 µM (inactive) | > 100 µM (inactive) | > 100 µM (inactive) | > 100 µM (inactive) | – | – |
| N#C/C(=C\c1ccc(O)c(O)c1)C(=O)NC1CCC(CC2CCC(NC(=O)/C(C#N)=C/c3ccc(O)c(O)c3)CC2)CC1 (stereo not drawn) | 1.85 µM (inactive) | 0.536 µM (active) | 0.356 µM (active) | 1.37 µM (inactive) | 0.466 µM (active) | 0.263 µM (active) | 3.82 µM (inactive) | 4.38 µM (inactive) | 0.293 µM (active) | 0.233 µM (active) | 4.02 µM (inactive) | 1.3 µM (inactive) | 2.04 µM (inactive) | 3.22 µM (inactive) | – | – |
| COC1CC(OS(=O)(=O)c2ccc([N+](=O)[O-])cc2)C(OC(=O)c2ccccc2)C(C)O1 (stereo not drawn) | > 100 µM (inactive) | 54.6 µM (inactive) | > 100 µM (inactive) | > 100 µM (inactive) | > 100 µM (inactive) | – | – | – | > 100 µM (inactive) | > 100 µM (inactive) | > 100 µM (inactive) | > 100 µM (inactive) | > 100 µM (inactive) | > 100 µM (inactive) | – | – |
| O=C(CCc1cc(-c2ccccc2)nc(S)n1)N(Cc1ccccc1)Cc1ccccc1 | > 100 µM (inactive) | > 100 µM (inactive) | > 100 µM (inactive) | > 100 µM (inactive) | > 100 µM (inactive) | – | > 100 µM (inactive) | > 100 µM (inactive) | > 100 µM (inactive) | > 100 µM (inactive) | > 100 µM (inactive) | > 100 µM (inactive) | > 100 µM (inactive) | – | – | – |
| COc1ccc(/C=N/NC(=O)CSc2nc(-c3ccccc3)c(-c3ccccc3)[nH]2)cc1OC | 17.7 µM (inactive) | 22.4 µM (inactive) | 20.5 µM (inactive) | 17.1 µM (inactive) | 45.9 µM (inactive) | 29.9 µM (inactive) | 26.4 µM (inactive) | 30.8 µM (inactive) | 34.7 µM (inactive) | 34.5 µM (inactive) | 35.4 µM (inactive) | 24.2 µM (inactive) | 33.1 µM (inactive) | 41 µM (inactive) | – | – |
| CCCCCCCCCCC(O)CCCCCCC(=O)O (stereo not drawn) | 19.1 µM (inactive) | 24.3 µM (inactive) | 15.8 µM (inactive) | 19.9 µM (inactive) | 18.2 µM (inactive) | 42.5 µM (inactive) | 78.3 µM (inactive) | 52 µM (inactive) | 27.5 µM (inactive) | 17.2 µM (inactive) | 65.9 µM (inactive) | 27.1 µM (inactive) | 36.3 µM (inactive) | 45.8 µM (inactive) | – | – |
| C/C=C/C1=C(Cl)C(=O)[C@@H](Cl)[C@@]1(O)C(=O)OC [(+)-CRYPTOSPORIPSIN] | 3.13 µM (inactive) | 2.19 µM (inactive) | 2.24 µM (inactive) | 2.45 µM (inactive) | 9.86 µM (inactive) | 7.38 µM (inactive) | 15.1 µM (inactive) | 10.2 µM (inactive) | 0.912 µM (active) | 2.84 µM (inactive) | 3.13 µM (inactive) | 11.2 µM (inactive) | 2.39 µM (inactive) | 7.66 µM (inactive) | 2.15 µM (inactive) | 1.48 µM (inactive) |
| CCOC(=O)c1cccnc1C(OC(C)=O)OC(C)=O | > 100 µM (inactive) | > 100 µM (inactive) | 70 µM (inactive) | > 100 µM (inactive) | > 100 µM (inactive) | > 100 µM (inactive) | > 100 µM (inactive) | > 100 µM (inactive) | > 100 µM (inactive) | > 100 µM (inactive) | > 100 µM (inactive) | 83.4 µM (inactive) | > 100 µM (inactive) | > 100 µM (inactive) | – | – |
| COc1ccc(C2S/C(=C\c3ccccc3O)C(=O)N2NC(=O)Cc2ccccc2)cc1 (stereo not drawn) | > 100 µM (inactive) | > 100 µM (inactive) | > 100 µM (inactive) | – | 98.6 µM (inactive) | 57.3 µM (inactive) | > 100 µM (inactive) | > 100 µM (inactive) | 48.5 µM (inactive) | 38.2 µM (inactive) | > 100 µM (inactive) | > 100 µM (inactive) | > 100 µM (inactive) | 40.3 µM (inactive) | – | – |
| NCCn1ccc(NC(c2ccccc2)(c2ccccc2)c2ccccc2)nc1=O | – | 17 µM (inactive) | 16.4 µM (inactive) | 25.8 µM (inactive) | 25.2 µM (inactive) | 16.7 µM (inactive) | – | 15.8 µM (inactive) | – | 18.2 µM (inactive) | 30 µM (inactive) | 19.8 µM (inactive) | – | 20.2 µM (inactive) | – | – |
| Cc1c(/C=N/N=C/c2[nH]c(C(=O)OC(C)(C)C)c(C)c2C)[nH]c(C(=O)OC(C)(C)C)c1C | > 100 µM (inactive) | > 100 µM (inactive) | 61 µM (inactive) | > 100 µM (inactive) | > 100 µM (inactive) | 33 µM (inactive) | > 100 µM (inactive) | > 100 µM (inactive) | 70.1 µM (inactive) | > 100 µM (inactive) | > 100 µM (inactive) | > 100 µM (inactive) | > 100 µM (inactive) | – | – | – |
| NC(C(=O)O)c1ccc(C(=O)O)cc1 (stereo not drawn) | > 100 µM (inactive) | > 100 µM (inactive) | > 100 µM (inactive) | > 100 µM (inactive) | > 100 µM (inactive) | > 100 µM (inactive) | > 100 µM (inactive) | > 100 µM (inactive) | > 100 µM (inactive) | – | > 100 µM (inactive) | > 100 µM (inactive) | > 100 µM (inactive) | > 100 µM (inactive) | – | – |
| COC(=O)C(CC(=O)Nc1ccc(Cl)c(Cl)c1)C(=O)C(=O)NC1C2CC3CC(C2)CC1C3 (stereo not drawn) | > 100 µM (inactive) | > 100 µM (inactive) | > 100 µM (inactive) | > 100 µM (inactive) | > 100 µM (inactive) | – | > 100 µM (inactive) | > 100 µM (inactive) | > 100 µM (inactive) | > 100 µM (inactive) | > 100 µM (inactive) | > 100 µM (inactive) | > 100 µM (inactive) | > 100 µM (inactive) | – | – |
